Several values for one entry are separate records, joined by “and”; a condition that tells them apart may be missing. Identical values can stand only once. Like-named read-outs stand apart in the source and are kept apart here.
Legend:
recombinant BRD4 BD1 = biological target: T1, recombinant BRD4 BD1 (Homo sapiens, UniProt O60885); test: Competitive fluorescence-polarization (FP) binding assay, BRD4 BD1; conditions: protein 10 nM, probe 1.5 nM
T1 construct: recombinant BRD4 BD1 and BRD4 BD2 proteins
Description: Fluorescence Polarization (FP) competitive binding studies were carried out using a FAM labeled fluorescent probe, see Cpd. […] Equilibrium dissociation constants (Kd) values of the fluorescent probe to BRD4 BD1 and BD2 proteins were determined from protein saturation experiments by monitoring the total fluorescence polarization of mixtures composed with the fluorescent probe at a fixed concentration and proteins with increasing concentrations up to full saturation. […] Plates were incubated at room temperature for 30 minutes with gentle shaking to assure equilibrium.
The IC50 and Ki values of compounds were determined in a competitive binding experiment. […] Mixtures of 10 μl of the tested compounds in assay buffer with 40% Ethylene Glycol and 190 μl of preincubated protein/probe complex solution in the assay buffer (100 mM potassium phosphate, pH 6.5, 0.01% Triton X-100) were added into assay plates which were incubated at room temperature for 30 minutes with gentle shaking. Final concentrations of proteins were 10 and 6 nM in assays for BRD4 BD1 and BD2, respectively. […] FP values were measured as described above. IC50 values were determined by nonlinear regression fitting of the competition curves.

recombinant BRD4 BD2 = biological target: T2, recombinant BRD4 BD2 (Homo sapiens, UniProt O60885); test: Competitive fluorescence-polarization (FP) binding assay, BRD4 BD2; conditions: protein 6 nM, probe 1.5 nM
T2 construct: recombinant BRD4 BD1 and BRD4 BD2 proteins
Description: Fluorescence Polarization (FP) competitive binding studies were carried out using a FAM labeled fluorescent probe, see Cpd. […] Equilibrium dissociation constants (Kd) values of the fluorescent probe to BRD4 BD1 and BD2 proteins were determined from protein saturation experiments by monitoring the total fluorescence polarization of mixtures composed with the fluorescent probe at a fixed concentration and proteins with increasing concentrations up to full saturation. Serial dilutions of testing proteins were mixed with the fluorescent probe to a final volume of 200 μl in the assay buffer (100 mM phosphate buffer, pH=6.5, 0.01% Triton X-100 (Sigma, 282103) being added right before assays). Final fluorescent probe concentration was 1.5 nM for both proteins. Plates were incubated at room temperature for 30 minutes with gentle shaking to assure equilibrium. FP values in millipolarization units (mP) were measured using the Infinite M-1000 plate reader (Tecan U.S., Research Triangle Park, N.C.) in Microfluor 1 96-well, black, round-bottom plates (Thermo Scientific, Waltham, Mass.) at an excitation wavelength of 485 nm and an emission wavelength of 530 nm.
The IC50 and Ki values of compounds were determined in a competitive binding experiment. […] Mixtures of 10 μl of the tested compounds in assay buffer with 40% Ethylene Glycol and 190 μl of preincubated protein/probe complex solution in the assay buffer (100 mM potassium phosphate, pH 6.5, 0.01% Triton X-100) were added into assay plates which were incubated at room temperature for 30 minutes with gentle shaking. Final concentrations of proteins were 10 and 6 nM in assays for BRD4 BD1 and BD2, respectively. Final probe concentration is 1.5 nM in both assays. […] FP values were measured as described above. IC50 values were determined by nonlinear regression fitting of the competition curves.

MOLM-13 = test: Cell growth inhibition, 4-day proliferation assay, MOLM-13; type: cell-based; conditions: read-out: Cell Viability (IC50, μM) MOLM-13
Description: The effect of representative Compounds of the Disclosure on cell viability was determined in a 4-day proliferation assay. Cells were maintained in the appropriate culture medium with 10% FBS at 37° C. and an atmosphere of 5% CO2. All the cell lines were used within three months of thawing fresh vials.
Cells were seeded in 96-well flat bottom (Corning COSTAR, Corning, N.Y., cat #3595) or white opaque cell culture plates (BD Falcon, cat #353296) at a density of 3,000-10,000 cells/well in 75 μl of culture medium. Compounds were serially diluted in the appropriate medium, and 75 μl of the diluted compounds were added to the appropriate wells of the cell plate. After the addition of compounds, the cells were incubated at 37° C. in an atmosphere of 5% CO2 for 4 days. Cell viability was determined using the CellTiter-Glo® Luminescent Cell Viability Assay Kit (Promega, Madison, Wis.) for leukemia cells and WST (2-(2-methoxy-4-nitrophenyl)-3-(4-nitrophenyl)-5-(2,4-disulfophenyl)-2H-tetrazolium, monosodium salt) Cell Counting-8 Kit (Dojindo Molecular Technologies, Inc., Rockville, Md.) for adhenrent cells according to the manufacturers' instructions. […]
For CellTiter-Glo assay (suspension cells), 100 μl of CellTiter-Glo® Reagent was added to each well, and then the plates were incubated at room temperature for 10-20 minutes. The luminescent signal was measured using a Tecan Infinite M1000 multimode microplate reader (Tecan, Morrisville, N.C.). The readings were normalized to the DMSO-treated cells and the IC50 was calculated by nonlinear regression (four parameters sigmoid fitted with variable slope, least squares fit, and no constraint) analysis using the GraphPad Prism 5 software. See US 2014/0256706.

[1] = FP competitive binding, read-out: IC50 (nM) BRD4 BD1
[2] = Homo sapiens, MOLM-13, 96 h, 4 days incubation, MOLM-13 cells

SMILES | IC50 (recombinant BRD4 BD1; [1]) | IC50 (recombinant BRD4 BD2) | IC50 (MOLM-13; [2]) [µM] | further results
Cc1sc2c(c1Cc1cccc(Cl)c1)COCc1nnc(C)n1-2 [Cpd. No. 8, 3-(3-chlorobenzyl)-2,9-dimethyl-4H,6H-thieno[2,3-e][1,2,4]triazolo[3,4-c][1,4]oxazepine] | 311 nM | 285 nM | 2.5 | 
Cc1sc2c(c1Cc1ccc(Cl)cc1)COCc1nnc(C)n1-2 [Cpd. No. 9, 3-(4-chlorobenzyl)-2,9-dimethyl-4H,6H-thieno[2,3-e][1,2,4]triazolo[3,4-c][1,4]oxazepine] | 88.4 nM | 271 nM | 1 | 
Cc1sc2c(c1Cc1ccccc1Cl)COCc1nnc(C)n1-2 [Cpd. No. 10, 3-(2-chlorobenzyl)-2,9-dimethyl-4H,6H-thieno[2,3-e][1,2,4]triazolo[3,4-c][1,4]oxazepine] | 263 nM | 312 nM | 3.4 | 
Cc1sc2c(c1Cc1ccccc1)CN(C(=O)OCc1ccccc1)[C@H](C)c1nnc(C)n1-2 [Cpd. No. 16, benzyl (R)-3-benzyl-2,6,9-trimethyl-4H-thieno[3,2-f][1,2,4]triazolo[4,3-a][1,4]diazepine-5(6H)-carboxylate] | 229 nM | 326 nM | 2.8 | 
CCOC(=O)CN1Cc2c(sc(C)c2Cc2ccccc2)-n2c(C)nnc2[C@@H]1C [Cpd. No. 25, ethyl (S)-2-(3-benzyl-2,6,9-trimethyl-4H-thieno[3,2-f][1,2,4]triazolo[4,3-a][1,4]diazepin-5(6H)-yl)acetate] | 942 nM | 1100 nM |  | 
Cc1sc2c(c1Cc1ccccc1)CN(S(=O)(=O)CCc1ccccc1)[C@@H](C)c1nnc(C)n1-2 [Cpd. No. 26, (S)-3-benzyl-2,6,9-trimethyl-5-(phenethylsulfonyl)-5,6-dihydro-4H-thieno[3,2-f][1,2,4]triazolo[4,3-a][1,4]diazepine] | 9600 nM | 4460 nM |  | 
Cc1sc2c(c1Cc1ccccc1)CN(C1CCC1)[C@@H](C)c1nnc(C)n1-2 [Cpd. No. 29, (S)-3-benzyl-5-cyclobutyl-2,6,9-trimethyl-5,6-dihydro-4H-thieno[3,2-f][1,2,4]triazolo[4,3-a][1,4]diazepine] | 1470 nM | 5860 nM |  | 
Cc1nnc2n1-c1sc(Br)c(Cc3ccccc3)c1COC2 [Cpd. No. 31, 3-benzyl-2-bromo-9-methyl-4H,6H-thieno[2,3-e][1,2,4]triazolo[3,4-c][1,4]oxazepine] | 209 nM and 265 nM and 352 nM |  | 1.4 | IC50 (MOLM-13; 4 days incubation, MOLM-13 cells): 1.7 µM
Cc1nnc2n1-c1sc(-c3ccc(N)nc3)c(Cc3ccccc3)c1COC2 [Cpd. No. 32, 5-(3-benzyl-9-methyl-4H,6H-thieno[2,3-e][1,2,4]triazolo[3,4-c][1,4]oxazepin-2-yl)pyridin-2-amine] | 294 nM |  | 1.9 | 
C#Cc1sc2c(c1Cc1ccccc1)COCc1nnc(C)n1-2 [Cpd. No. 33, 3-benzyl-2-ethynyl-9-methyl-4H,6H-thieno[2,3-e][1,2,4]triazolo[3,4-c][1,4]oxazepine] |  |  | 1 | 
Cc1sc2c(c1Cc1ccccc1)CN(C)[C@H](C)c1nnc(C)n1-2 [Cpd. No. 34, (R)-3-benzyl-2,5,6,9-tetramethyl-5,6-dihydro-4H-thieno[3,2-f][1,2,4]triazolo[4,3-a][1,4]diazepine] |  |  | 1 | 
Cc1sc2c(c1Cc1ccccc1)CN(C)Cc1nnc(C)n1-2 [Cpd. No. 35, 3-benzyl-2,5,9-trimethyl-5,6-dihydro-4H-thieno[3,2-f][1,2,4]triazolo[4,3-a][1,4]diazepine] | 602 nM |  | 2.2 | 
Cc1nnc2n1-c1cccc(Br)c1COC2 [Cpd. No. 36, 7-bromo-1-methyl-4,6-dihydrobenzo[e][1,2,4]triazolo[3,4-c][1,4]oxazepine] | > 10000 nM | > 10000 nM |  | 
Cc1nnc2n1-c1cccc(Nc3ccccc3)c1COC2 [Cpd. No. 37, 1-methyl-N-phenyl-4,6-dihydrobenzo[e][1,2,4]triazolo[3,4-c][1,4]oxazepin-7-amine] | 14500 nM | 1460 nM |  | 
Cc1nnc2n1-c1cccc(Cc3ccccc3)c1COC2 [Cpd. No. 38, 7-benzyl-1-methyl-4,6-dihydrobenzo[e][1,2,4]triazolo[3,4-c][1,4]oxazepine] | 1420 nM and 1260 nM | 367 nM |  | 
Cc1nnc2n1-c1cccc(Sc3ccccc3)c1COC2 [Cpd. No. 39, 1-methyl-7-(phenylthio)-4,6-dihydrobenzo[e][1,2,4]triazolo[3,4-c][1,4]oxazepine] | 5450 nM | 1060 nM |  | 

SMILES | IC50 (recombinant BRD4 BD1; [1]) | IC50 (recombinant BRD4 BD2) | IC50 (MOLM-13; [2]) [µM] | further results
Cc1nnc2n1-c1cccc([S+]([O-])c3ccccc3)c1COC2 (centres unmarked) [Cpd. No. 41, 1-methyl-7-(phenylsulfinyl)-4,6-dihydrobenzo[e][1,2,4]triazolo[3,4-c][1,4]oxazepine] | 18000 nM | 16600 nM |  | 
Cc1nnc2n1-c1cccc(S(=O)(=O)c3ccccc3)c1COC2 [Cpd. No. 42, 1-methyl-7-(phenylsulfonyl)-4,6-dihydrobenzo[e][1,2,4]triazolo[3,4-c][1,4]oxazepine] | 10300 nM | 5020 nM |  | 
C=C(c1ccccc1)c1cccc2c1COCc1nnc(C)n1-2 [Cpd. No. 43, 1-methyl-7-(1-phenylvinyl)-4,6-dihydrobenzo[e][1,2,4]triazolo[3,4-c][1,4]oxazepine] | 3530 nM | 328 nM |  | 
Cc1nnc2n1-c1cccc(C3=CCc4ccccc43)c1COC2 [Cpd. No. 44, 7-(1H-inden-3-yl)-1-methyl-4,6-dihydrobenzo[e][1,2,4]triazolo[3,4-c][1,4]oxazepine] | 4400 nM | 238 nM |  | 
Cc1nnc2n1-c1cccc(Cc3ccc(OC(F)(F)F)cc3)c1COC2 [Cpd. No. 45, 1-methyl-7-(4-(trifluoromethoxy)benzyl)-4,6-dihydrobenzo[e][1,2,4]triazolo[3,4-c][1,4]oxazepine] | 1550 nM | 1370 nM |  | 
Cc1nnc2n1-c1cccc(C3CCc4ccccc43)c1COC2 (centres unmarked) [Cpd. No. 47, 7-(2,3-dihydro-1H-inden-1-yl)-1-methyl-4,6-dihydrobenzo[e][1,2,4]triazolo[3,4-c][1,4]oxazepine] | 1200 nM | 303 nM |  | 
Cc1sc2c(c1C1=CCCc3ccccc31)COCc1nnc(C)n1-2 [Cpd. No. 51, 3-(3,4-dihydronaphthalen-1-yl)-2,9-dimethyl-4,6-dihydrothieno[2,3-e][1,2,4]triazolo[3,4-c][1,4]oxazepine] | 256 nM | 207 nM |  | 
Cc1nnc2n1-c1cccc(C(=O)c3ccccc3)c1COC2 [Cpd. No. 52, (1-methyl-4,6-dihydrobenzo[e][1,2,4]triazolo[3,4-c][1,4]oxazepin-7-yl)(phenyl)methanone] | > 10000 nM | > 10000 nM |  | 
Cc1sc2c(c1C1CCCc3ccccc31)COCc1nnc(C)n1-2 (centres unmarked) [Cpd. No. 54, 2,9-dimethyl-3-(1,2,3,4-tetrahydronaphthalen-1-yl)-4,6-dihydrothieno[2,3-e][1,2,4]triazolo[3,4-c][1,4]oxazepine] | 210 nM | 127 nM |  | 
Cc1nnc2n1-c1ccc(Cl)c(Cc3ccccc3)c1COC2 [Cpd. No. 71, 7-benzyl-8-chloro-1-methyl-4,6-dihydrobenzo[e][1,2,4]triazolo[3,4-c][1,4]oxazepine] |  |  |  | IC50 (recombinant BRD4 BD1; IC50 (nM) BRD4 BD1, FP competitive binding): 864 nM; IC50 (MOLM-13; Homo sapiens, MOLM-13, 96 h): 3.8 µM
Cc1nnc2n1-c1ccc(-c3cnn(C)c3)c(Cc3ccccc3)c1COC2 [Cpd. No. 73, 7-benzyl-1-methyl-8-(1-methyl-1H-pyrazol-4-yl)-4,6-dihydrobenzo[e][1,2,4]triazolo[3,4-c][1,4]oxazepine] | 234 nM and 366 nM |  | 1.1 | 
Cc1sc2c(c1Cn1cccn1)COCc1nnc(C)n1-2 [Cpd. No. 112, 3-((1H-pyrazol-1-yl)methyl)-2,9-dimethyl-4H,6H-thieno[2,3-e][1,2,4]triazolo[3,4-c][1,4]oxazepine] | 1370 nM and 2610 nM and 1760 nM | 3230 nM and 3850 nM and 3950 nM |  | 
Cc1sc2c(c1Cc1ccccc1)CO[C@H](C)c1nnc(C)n1-2 [Cpd. No. 114, (R)-3-benzyl-2,6,9-trimethyl-4H,6H-thieno[2,3-e][,2,4]triazolo[3,4-c][1,4]oxazepine] | 249 nM | 297 nM |  | 
Cc1sc2c(c1Cc1ccccc1)COC(CC(=O)OC(C)(C)C)c1nnc(C)n1-2 (centres unmarked) [Cpd. No. 115, tert-butyl 2-(3-benzyl-2,9-dimethyl-4H,6H-thieno[2,3-e][1,2,4]triazolo[3,4-c][1,4]oxazepin-6-yl)acetate] | 170 nM | 338 nM |  | 
Cc1sc2c(c1Br)CN(C(=O)OCc1ccccc1)[C@@H](C)c1nnc(C)n1-2 [Cpd. No. 147, benzyl (S)-3-bromo-2,6,9-trimethyl-4H-thieno[3,2-f][1,2,4]triazolo[4,3-a][1,4]diazepine-5(6H)-carboxylate] | 48600 nM | 83700 nM |  | 

Reference: patent US11548899B2, “Fused 1,4-oxazepines and related analogs as BET bromodomain inhibitors” (THE REGENTS OF THE UNIVERSITY OF MICHIGAN, priority 2016, dated 2023)
